{"source": "paper PMC3765993", "about": "“The duration of sleep promoting efficacy by dual orexin receptor antagonists is dependent upon receptor occupancy threshold” (BMC Neuroscience, 2013)", "key": {"rhesus monkeys [1]": {"test_system": "rhesus monkeys", "conditions": "sleep-promoting doses; cited from earlier work"}, "rhesus monkeys [2]": {"test_system": "rhesus monkeys", "experiment": "Rhesus monkey polysomnography (active wake)", "type": "in vivo", "conditions": "for Active wake late in the inactive phase and next morning (residual sleep effect): 10 mg/kg p.o. 2 h before lights out, 10 mg/kg", "protocol": "Animals were fed on a calorie-controlled diet of laboratory chow supplemented with fruit and vegetables. Water was available ad libitum with the exception of those monkeys trained to perform cognitive tasks, for which access was restricted for up to 4 h prior to and during cognitive testing. Treatment occurred at 14:40 (Zeitgeber time [ZT] 10:10) in a balanced 1-day cross-over design: 1 day of drug or vehicle followed by 6 days of baseline followed by 1 day of vehicle or drug. Cognition tasks were scheduled for next-day evaluation as described below. Sleep/wake architecture was scored according to vigilance state (active wake, quiet wake, delta sleep I, delta sleep II, and REM sleep) at 30-minute intervals and analyzed as previously described. Spectral analysis of continuous EEG was quantified between vehicle and compound after binning continuous frequencies into canonical frequency bands (reported herein: Delta, 0.5 – 4 Hz; Theta, 4.0 – 7 Hz; Gamma, 35.0 – 100.0 Hz). qEEG values are spectral power (uV2) log transformed before analysis and averaged over 30-minute intervals, expressed as means +/− SEM, and compared with vehicle using a mixed-model ANOVA at each time point with random effects for subject and date within subject in the R statistical computing environment (cran.us.r-project.org; the R Foundation for Statistical Computing, Vienna, Austria) using a linear mixed effects model for significance testing."}, "in vivo": {"experiment": "in vivo", "conditions": "rhesus monkey, po, 10 mg/kg"}, "rhesus monkeys [3]": {"test_system": "rhesus monkeys", "experiment": "Monkey Delayed Match to Sample (DMS) task", "type": "in vivo", "conditions": "10 mg/kg p.o., versus vehicle", "source_text": "All cognition testing occurred in the animal’s home cage equipped with a touchscreen. Each DMS trial was initiated with a single ‘sample’ image (150 × 200 pixels: 1.8 inches × 2.3 inches) in one of eight colors presented at the center of a touchscreen. Evaluation began when the monkey touched the sample image, at which point the screen became blank for a retention period. Following the retention period, four choice images (150 × 200 pixels) were presented, one in each corner of the screen. One of the four choice images matched the color of the sample image, whereas the three remaining ‘distractor’ images were drawn from the pool of remaining colors. A reinforcer was provided when the monkey touched the choice image that matched the color of the sample image. […] Test sessions comprised 96 trials or lasted for up to 45 min. […] Response latencies to sample and choice images were also recorded. Values reported reflect the proportion of correct responses collapsed over all retention intervals. Differences from vehicle were examined using repeated measures ANOVA."}, "[4]": {"conditions": "rhesus monkeys, 10 mg/kg p.o."}, "rhesus monkeys [5]": {"test_system": "rhesus monkeys", "design": "method as in PMID 23552372", "conditions": "10 mg/kg, active-phase dosing, quantified over 2 h; cited from earlier work"}, "rhesus monkeys [6]": {"test_system": "rhesus monkeys", "experiment": "Monkey Serial Choice Reaction Time (SCRT) task", "type": "in vivo", "conditions": "10 mg/kg p.o.; for Next-day attention (SCRT, correct responses to shortest cues), 16 h after dosing: versus vehicle, 10 mg/kg", "source_text": "Each SCRT trial was initiated with the appearance of 10 blue square ‘target’ images evenly distributed at 3-inch intervals around the perimeter of a touchscreen presented together with a centrally located circular ‘centering’ image (1.4 inch diameter circle). The task began with the monkey touching the centering image, which then turned gray. The monkey was then required to touch the centering image continuously throughout a variable pre-cue interval of 0.25-7.5 s. On completion of the pre-cue interval, one of the blue target images was cued by turning red for one of four cue durations before turning back to blue. To obtain a reward, the monkey was required to touch the target image that had been ‘cued’ red within a 5 s limited hold period. […] On completion of the trial, an inter-trial interval of 2 s was initiated prior to the next trial. […] If the monkey initiated a trial but removed its hand from the touchscreen prior to the appearance of the cue, the trial was terminated and the screen was blanked during a 2 s inter-trial interval. Sessions were terminated after 20 min. Cue location and duration were pseudo-randomly assigned. Cue duration and the target size were titrated for each subject on the basis of performance during previous baseline sessions to yield a performance of 60–80% correct responses for the trials of the shortest cue duration. The briefest cue duration varied from 0.04–0.1 s and the cues varied in size from 0.2–0.7 inches, although each cue had the same touch-sensitive area of 1.75 inches. Values reported in the current study reflect the proportion of correct responses to targets after cues of the shortest duration only."}, "dogs": {"test_system": "dogs", "conditions": "cited from earlier work"}, "[7]": {"experiment": "Unbound (free) plasma fraction, rat"}, "[8]": {"experiment": "Free plasma fraction, human"}, "[9]": {"experiment": "Suvorexant plasma levels in humans (Phase 1)"}, "OX2R [10]": {"biological_target": "T1, OX2R (Homo sapiens, UniProt O43614)", "T1 sequence (O43614 1-444)": "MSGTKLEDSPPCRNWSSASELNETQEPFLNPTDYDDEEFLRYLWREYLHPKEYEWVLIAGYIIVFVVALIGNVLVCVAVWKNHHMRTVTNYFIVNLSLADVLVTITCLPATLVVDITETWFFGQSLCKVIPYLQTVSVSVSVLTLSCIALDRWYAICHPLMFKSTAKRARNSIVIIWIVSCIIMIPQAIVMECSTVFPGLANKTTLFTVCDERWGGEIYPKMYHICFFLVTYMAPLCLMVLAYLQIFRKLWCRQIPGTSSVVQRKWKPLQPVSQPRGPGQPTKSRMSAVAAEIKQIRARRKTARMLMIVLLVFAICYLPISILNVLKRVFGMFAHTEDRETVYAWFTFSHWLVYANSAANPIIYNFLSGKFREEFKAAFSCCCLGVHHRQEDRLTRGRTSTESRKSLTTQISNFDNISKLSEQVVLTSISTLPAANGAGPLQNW", "conditions": "free + bound; cited from earlier work"}, "[11]": {"experiment": "Suvorexant plasma levels in satellite dogs", "conditions": "1 or 3 mg/kg p.o."}, "OX2R [12]": {"biological_target": "T1, OX2R", "experiment": "OX2R occupancy, ex vivo radioligand-binding displacement in transgenic rats expressing human OX2R", "design": "from tissue; host or cells: brain homogenate of transgenic rats expressing hOX2R under the rat enolase promoter; species or system transgenic rat", "conditions": "rats, calculated from plasma value on normalized occupancy curve", "source_text": "Frozen tissue was weighed and thawed coincident with homogenization."}, "Orexin 2 receptor": {"biological_target": "T2, Orexin 2 receptor (Homo sapiens, UniProt O43614)", "T2 sequence (O43614 1-444)": "T1 sequence (O43614 1-444)", "experiment": "Orexin 2 receptor binding kinetics"}, "[13]": {"experiment": "Plasma and CSF compound levels in satellite rats", "conditions": "rats", "protocol": "Separately, the relationship between OX2R occupancy relative to plasma exposure was determined by administering DORA-12 intravenously (i.v.) over a range of doses to transgenic rats expressing human OX2R to determine a full occupancy curve over a wide range of plasma concentrations in order to define the maximal occupancy against which raw occupancy values could be normalized. This relationship was then used to determine the OX2R occupancy in PSG experiments from measured plasma concentrations.\nOccupancy of human OX2R in transgenic rats expressing the receptor via the rat enolase promoter was performed ex vivo in radioligand-binding-displacement assays essentially as previously described with minor modifications. To determine the relationship between OX2R occupancy for a given compound over a full range of plasma and CSF concentrations, hOX2R-expressing rats were dosed i.v. with compound. Immediately following 30 min of i.v. administration, animals were anesthetized, sacrificed, and CSF, blood, and brain tissue were harvested and frozen for analysis. Frozen tissue was weighed and thawed coincident with homogenization. The homogenate was pelleted at 21,000 × g for 1 min and the pellet was resuspended. […] Non-specific binding was determined by the addition of 1000-fold excess unlabeled ligand. Experimental (dosed)-specific binding was compared with control (vehicle-dosed) binding ([specific total counts minus specific experimental counts]/specific total counts × 100 = percent occupancy). Raw occupancy values determined in this manner over a range of plasma and CSF values were then used to construct a normalized curve where the theoretical maximum occupancy value was defined as 100% and occupancies relative to plasma or CSF values were fit to a […] (hyperbola) curve (GraphPad Prism, San Diego, CA, USA). […] In separate experiments, plasma, CSF, and brain tissue was collected at time points following dosing to directly measure compound levels and corresponding OX2R occupancies at these times. Resulting occupancy relative to measured plasma levels of compound was fit to a normalized binding curve as described previously."}, "[14]": {"experiment": "Unbound (free) plasma fraction, dog"}, "OX2R [15]": {"biological_target": "T1, OX2R", "experiment": "Human plasma concentration calculated for a given OX2R occupancy (from transgenic rat occupancy, free-fraction normalized)", "type": "in vivo", "conditions": "free + bound; normalized for free fraction (rat 1.4%, human 1.0%)"}}, "note": "Like-named read-outs stand apart in the source and are kept apart here."}
{"smiles": "CN1CCN(C(=O)O[C@H]2c3nccnc3C(=O)N2c2ccc(Cl)cn2)CC1", "note": "[Eszopiclone]", "values": [{"measurement": "Cognitive assessment in DMS and SCRT tasks within 2 h following treatment", "setting": "rhesus monkeys [1]", "value": "substantial deficits"}, {"measurement": "Time for which reductions in active wake were detectable", "setting": "rhesus monkeys [2]; 10 mg/kg p.o.", "value": "up to 6 h"}, {"measurement": "Active wake late in the inactive phase and next morning (residual sleep effect)", "setting": "rhesus monkeys [2]", "value": "did not demonstrate next-day sleep effects"}, {"measurement": "Active wake late in the inactive phase and next morning (residual sleep effect)", "setting": "rhesus monkeys [2]; listed as eszopiclone", "value": "no consistent attenuation of active wake"}, {"measurement": "Cmax", "setting": "in vivo", "value": 1680, "unit": "nM"}, {"measurement": "concentration at 17 h", "setting": "in vivo", "value": 535, "unit": "nM"}, {"measurement": "Next-day recognition memory (DMS), 14 h after dosing", "setting": "rhesus monkeys [3]", "value": "did not demonstrate next-day sleep effects or memory impairment"}, {"measurement": "Next-day recognition memory (DMS), 14 h after dosing", "setting": "rhesus monkeys [3]; listed as eszopiclone", "value": "not"}, {"measurement": "Time of plasma Cmax", "setting": "[4]", "value": 0.5, "unit": "h"}, {"measurement": "Attenuation of active wake relative to vehicle", "setting": "rhesus monkeys [5]", "value": 55.0, "unit": "min"}, {"measurement": "Time for which effects on attention were observed", "setting": "rhesus monkeys [6]", "value": "up to 16 h"}, {"measurement": "Next-day attention (SCRT, correct responses to shortest cues), 16 h after dosing", "setting": "rhesus monkeys [6]", "value": "significantly impair attention"}, {"measurement": "Next-day attention (SCRT, correct responses to shortest cues), 16 h after dosing", "setting": "rhesus monkeys [6]; listed as eszopiclone", "value": "significant deficits"}]}
{"smiles": "Cc1ccc(-n2nccn2)c(C(=O)N2CCN(c3nc4cc(Cl)ccc4o3)CC[C@H]2C)c1", "note": "[Suvorexant, [(7R)-4-(5-chloro-1,3-benzoxazol-2-yl)-7-methyl-1,4-diazepan-1-yl][5-methyl-2-(2H-1,2,3-triazol-2-yl)phenyl]methanone]", "values": [{"measurement": "Duration of effects on active wake", "setting": "dogs; 1 mg/kg", "value": "up to 4 h"}, {"measurement": "Duration of effects on active wake", "setting": "dogs; 3 mg/kg", "value": "up to 7.5 h"}, {"measurement": "fraction unbound", "setting": "[7]", "value": 0.014}, {"measurement": "fraction unbound", "setting": "[8]", "value": 0.01}, {"measurement": "Tmax", "setting": "[9]; human, in vivo", "value": "≤ 3", "unit": "h"}, {"measurement": "half-life", "setting": "[9]; human, in vivo", "value": "> 480", "unit": "min"}, {"measurement": "Post-dose time by which mean plasma concentrations fell below level for 65% OX2R occupancy", "setting": "[9]; humans, 10 and 20 mg doses", "value": "≤ 8", "unit": "h"}, {"measurement": "Plasma level calculated to correspond to 80% OX2R occupancy in humans", "setting": "OX2R [10]", "value": 0.71, "unit": "µM"}, {"measurement": "Plasma concentration at time points when efficacy was observed", "setting": "[11]", "value": "> 0.342", "unit": "µM"}, {"measurement": "Plasma exposure corresponding to efficacy", "setting": "[11]", "value": "> 342", "unit": "nM"}, {"measurement": "OX2R Occ (% max)", "setting": "OX2R [12]; dose 10 mg/kg", "value": 92.6, "unit": "% max"}, {"measurement": "OX2R Occ (% max)", "setting": "OX2R [12]; dose 30 mg/kg", "value": 94.3, "unit": "% max"}, {"measurement": "OX2R Occ (% max)", "setting": "OX2R [12]; dose 100 mg/kg", "value": 97.6, "unit": "% max"}, {"measurement": "T1/2 OFF (half-life off-rates)", "setting": "Orexin 2 receptor", "value": 89.4, "unit": "min"}, {"measurement": "T1/2 ON (binding half-life)", "setting": "Orexin 2 receptor; almorexant applied 3-fold above its Kd (value an underestimate)", "value": 80.1, "unit": "min"}, {"measurement": "Plasma", "setting": "[13]; dose 10 mg/kg", "value": 1600.0, "unit": "nM"}, {"measurement": "Plasma", "setting": "[13]; dose 30 mg/kg", "value": 2100.0, "unit": "nM"}, {"measurement": "Plasma", "setting": "[13]; dose 100 mg/kg", "value": 5100.0, "unit": "nM"}, {"measurement": "fraction unbound", "setting": "[14]", "value": 0.01}, {"measurement": "Human plasma concentration calculated to correspond to 65% OX2R occupancy", "setting": "OX2R [15]", "value": 0.33, "unit": "µM"}]}
